# Source: ChEMBL document CHEMBL6092154, “Design, synthesis, and evaluation of a novel TRAIL-activated HDAC6 inhibitor for the treatment of pulmonary fibrosis” (Bioorg Med Chem, 2024)
# Experiments:
# [1] = target: T1, Protein deacetylase HDAC6 (Homo sapiens, UniProt Q9UBN7); test: Inhibition of HDAC6 (unknown origin) incubated for 30 mins by fluorometric analysis
# T1 sequence (Q9UBN7 whole entry): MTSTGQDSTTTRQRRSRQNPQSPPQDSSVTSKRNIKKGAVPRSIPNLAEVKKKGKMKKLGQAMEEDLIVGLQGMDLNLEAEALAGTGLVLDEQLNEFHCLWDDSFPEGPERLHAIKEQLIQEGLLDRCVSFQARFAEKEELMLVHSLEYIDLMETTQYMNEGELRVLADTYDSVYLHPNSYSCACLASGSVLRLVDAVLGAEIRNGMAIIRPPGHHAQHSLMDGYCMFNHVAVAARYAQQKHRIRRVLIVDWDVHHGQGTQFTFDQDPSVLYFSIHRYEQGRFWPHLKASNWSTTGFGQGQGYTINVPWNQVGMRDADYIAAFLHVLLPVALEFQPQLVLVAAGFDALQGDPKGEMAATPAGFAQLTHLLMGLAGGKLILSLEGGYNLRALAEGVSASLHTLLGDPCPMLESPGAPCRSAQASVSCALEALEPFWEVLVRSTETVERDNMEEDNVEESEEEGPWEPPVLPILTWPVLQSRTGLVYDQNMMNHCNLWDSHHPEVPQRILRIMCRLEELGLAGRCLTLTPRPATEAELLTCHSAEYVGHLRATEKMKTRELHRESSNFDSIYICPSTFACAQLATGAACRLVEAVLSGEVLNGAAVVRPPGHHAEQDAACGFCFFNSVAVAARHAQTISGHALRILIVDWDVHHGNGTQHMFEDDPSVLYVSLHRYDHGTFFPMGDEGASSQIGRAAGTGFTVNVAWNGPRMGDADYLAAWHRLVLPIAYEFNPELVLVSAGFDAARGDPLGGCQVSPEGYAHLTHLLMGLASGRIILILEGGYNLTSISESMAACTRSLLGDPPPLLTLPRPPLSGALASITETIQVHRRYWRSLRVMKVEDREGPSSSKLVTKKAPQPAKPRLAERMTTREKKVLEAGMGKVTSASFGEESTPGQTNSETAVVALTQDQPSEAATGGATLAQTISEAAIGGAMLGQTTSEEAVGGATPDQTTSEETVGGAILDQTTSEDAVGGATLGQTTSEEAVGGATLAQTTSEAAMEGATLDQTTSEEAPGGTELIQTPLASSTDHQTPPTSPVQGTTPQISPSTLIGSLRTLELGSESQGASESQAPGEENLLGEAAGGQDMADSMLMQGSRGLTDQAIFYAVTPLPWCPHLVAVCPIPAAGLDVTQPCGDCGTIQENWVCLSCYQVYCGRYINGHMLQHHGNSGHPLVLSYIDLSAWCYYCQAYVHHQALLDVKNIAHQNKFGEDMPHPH
# RPMI-8226 = test: Antiproliferative activity against human RPMI-8226 cells assessed as inhibition of cell growth incubated for 24 to 48 hrs by CCK8 assay; assay type: functional, cell-based
# [2] = target: T2, Protein deacetylase HDAC6 (Homo sapiens) (UniProt Q9UBN7); test: Inhibition of HDAC6 (unknown origin) at 1 uM incubated for 30 mins by fluorometric analysis
# T2 sequence (whole entry): T1 sequence (Q9UBN7 whole entry)
# [3] = target: T3, Histone deacetylase 8 (Homo sapiens) (UniProt Q9BY41); test: Inhibition of HDAC8 (unknown origin) at 1 uM incubated for 30 mins by fluorometric analysis
# T3 sequence (whole entry): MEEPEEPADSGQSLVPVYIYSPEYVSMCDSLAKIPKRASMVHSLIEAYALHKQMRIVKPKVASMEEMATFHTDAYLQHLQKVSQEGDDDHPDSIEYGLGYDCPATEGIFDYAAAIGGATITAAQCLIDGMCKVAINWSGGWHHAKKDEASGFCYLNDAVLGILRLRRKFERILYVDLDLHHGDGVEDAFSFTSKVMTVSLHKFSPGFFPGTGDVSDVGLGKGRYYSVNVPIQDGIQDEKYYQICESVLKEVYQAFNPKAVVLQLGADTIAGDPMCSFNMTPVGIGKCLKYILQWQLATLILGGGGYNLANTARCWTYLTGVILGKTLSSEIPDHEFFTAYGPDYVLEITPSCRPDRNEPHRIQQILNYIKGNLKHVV
# Fibroblast = test: Antiproliferative activity against human primary fibroblasts assessed as inhibition of cell growth incubated for 24 to 48 hrs by CCK8 assay; assay type: functional, cell-based
# [4] = target: Histone deacetylase 1 (Homo sapiens) (UniProt Q13547); test: Inhibition of HDAC1 (unknown origin) at 1 uM incubated for 30 mins by fluorometric analysis
# NIH3T3 = test: Antiproliferative activity against mouse NIH/3T3 cells assessed as inhibition of cell growth incubated for 24 to 48 hrs by CCK8 assay; assay type: functional, cell-based
# Histone deacetylase 2 = Histone deacetylase 2 (Homo sapiens, UniProt Q92769); test: Inhibition of HDAC2 (unknown origin) at 1 uM incubated for 30 mins by fluorometric analysis
# Histone deacetylase 3 = Histone deacetylase 3 (Homo sapiens, UniProt O15379); test: Inhibition of HDAC3 (unknown origin) at 1 uM incubated for 30 mins by fluorometric analysis
# Chain of Histone deacetylase 3 (O15379 whole entry): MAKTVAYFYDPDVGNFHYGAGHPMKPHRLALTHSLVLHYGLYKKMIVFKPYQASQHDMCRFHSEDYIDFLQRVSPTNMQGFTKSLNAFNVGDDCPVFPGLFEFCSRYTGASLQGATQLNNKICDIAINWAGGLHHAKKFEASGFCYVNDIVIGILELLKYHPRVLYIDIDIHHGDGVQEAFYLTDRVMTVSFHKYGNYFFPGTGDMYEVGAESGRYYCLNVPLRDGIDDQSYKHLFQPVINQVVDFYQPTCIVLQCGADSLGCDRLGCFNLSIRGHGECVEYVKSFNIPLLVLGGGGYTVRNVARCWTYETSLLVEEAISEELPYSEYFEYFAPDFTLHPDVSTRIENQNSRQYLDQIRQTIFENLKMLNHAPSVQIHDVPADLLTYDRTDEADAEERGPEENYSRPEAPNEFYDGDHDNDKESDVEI
# Chain of Histone deacetylase 2 (Q92769 whole entry): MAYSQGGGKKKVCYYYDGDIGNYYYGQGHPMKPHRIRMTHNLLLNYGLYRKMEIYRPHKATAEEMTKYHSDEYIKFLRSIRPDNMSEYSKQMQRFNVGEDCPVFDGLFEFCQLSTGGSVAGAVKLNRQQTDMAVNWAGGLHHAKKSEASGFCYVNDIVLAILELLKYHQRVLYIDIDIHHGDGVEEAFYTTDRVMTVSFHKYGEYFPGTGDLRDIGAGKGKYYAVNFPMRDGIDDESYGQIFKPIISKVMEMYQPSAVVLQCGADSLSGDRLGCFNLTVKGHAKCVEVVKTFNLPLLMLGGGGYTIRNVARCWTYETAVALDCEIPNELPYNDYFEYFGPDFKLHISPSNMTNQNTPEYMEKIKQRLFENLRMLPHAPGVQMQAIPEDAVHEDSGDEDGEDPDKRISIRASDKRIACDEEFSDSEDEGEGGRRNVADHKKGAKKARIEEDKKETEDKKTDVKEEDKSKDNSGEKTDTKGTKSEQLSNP
# Chain of Histone deacetylase 1 (Homo sapiens) (Q13547 whole entry): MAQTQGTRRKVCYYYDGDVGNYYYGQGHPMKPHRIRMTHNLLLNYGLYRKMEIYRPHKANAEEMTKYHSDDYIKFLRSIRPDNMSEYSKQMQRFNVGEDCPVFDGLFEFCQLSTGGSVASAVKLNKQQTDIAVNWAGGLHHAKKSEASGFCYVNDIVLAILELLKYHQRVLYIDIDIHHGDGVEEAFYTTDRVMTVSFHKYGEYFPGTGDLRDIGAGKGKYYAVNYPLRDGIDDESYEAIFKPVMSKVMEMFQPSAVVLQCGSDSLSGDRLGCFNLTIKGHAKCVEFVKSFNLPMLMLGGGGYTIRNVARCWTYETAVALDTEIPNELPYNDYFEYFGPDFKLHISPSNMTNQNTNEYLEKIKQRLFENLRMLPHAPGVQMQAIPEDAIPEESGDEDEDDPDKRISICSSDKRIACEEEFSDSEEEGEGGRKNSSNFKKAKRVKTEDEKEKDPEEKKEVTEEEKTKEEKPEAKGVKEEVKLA
Compound,IC50 [1],IC50 (RPMI-8226),inhibition [2],inhibition [3],inhibition [4],inhibition (Histone deacetylase 2),inhibition (Histone deacetylase 3),IC50 (Fibroblast),IC50 (NIH3T3)
Cc1ccc(CN2CCC3=C(C2)C(=O)N(Cc2ccc(C(=O)NO)cc2)C2=NCCN23)cc1,50.9 nM,13300 nM,91.3%,63.6%,31.8%,58.4%,53.1%,136000 nM,1630 nM
O=C(NO)c1ccc(CN2C(=O)C3=C(CCN(Cc4cccc(C(F)(F)F)c4Cl)C3)N3CCN=C23)cc1,60.1 nM,49400 nM,94.1%,31%,18.3%,60.8%,52.7%,111000 nM,6710 nM
O=C(NO)c1ccc(CN2C(=O)C3=C(CCN(Cc4cccc(Br)c4)C3)N3CCN=C23)cc1,31.5 nM,1860 nM,93.6%,76%,36.4%,63.9%,56.6%,47400 nM,100 nM
Cc1ccccc1CN1CCC2=C(C1)C(=O)N(Cc1ccc(C(=O)NO)cc1)C1=NCCN12,48 nM,10700 nM,94.7%,69.8%,32.4%,60.5%,51.2%,59200 nM,5900 nM
O=C(NO)c1ccc(CN2C(=O)C3=C(CCN(Cc4cccc(F)c4)C3)N3CCN=C23)cc1,64.4 nM,1580 nM,97.1%,75%,47.9%,61.9%,56.4%,26700 nM,6510 nM
O=C(NO)c1ccc(CN2C(=O)C3=C(CCN(Cc4cccnc4)C3)N3CCN=C23)cc1,137 nM,2880 nM,95.1%,66.4%,9.3%,46.3%,36.2%,4580 nM,8400 nM

# Stronger by IC50 (RPMI-8226), values ahead:
IC50 [1],IC50 (RPMI-8226),inhibition [2],inhibition [3],inhibition [4],inhibition (Histone deacetylase 2),inhibition (Histone deacetylase 3),Compound,IC50 (Fibroblast),IC50 (NIH3T3)
36.8 nM,1080 nM,96.2%,48.2%,27.2%,62.7%,43.8%,O=C(NO)c1ccc(CN2C(=O)C3=C(CCN(Cc4ccc(Cl)c(C(F)(F)F)c4)C3)N3CCN=C23)cc1,45300 nM,9880 nM
54.8 nM,1060 nM,93.8%,74.9%,44.7%,61.7%,50.6%,Cc1cccc(CN2CCC3=C(C2)C(=O)N(Cc2ccc(C(=O)NO)cc2)C2=NCCN23)c1,50700 nM,90 nM
–,850 nM,98.5%,–,–,–,–,O=C(CCCCCCNC(=O)c1cnc(N(c2ccccc2)c2ccccc2)nc1)NO [RICOLINOSTAT],35100 nM,3530 nM
65.4 nM,620 nM,97.2%,72.8%,68.3%,56.8%,51.9%,O=C(NO)c1ccc(CN2C(=O)C3=C(CCN(Cc4ccccc4)C3)N3CCN=C23)cc1,30600 nM,1000 nM
104 nM,100 nM,95.4%,72.2%,59.3%,57.6%,52.3%,COc1cccc(CN2CCC3=C(C2)C(=O)N(Cc2ccc(C(=O)NO)cc2)C2=NCCN23)c1,55200 nM,11400 nM
